One data set in a line: Solubility of CBD in BCP. Format: physicochemical. The following applies: in 1 mL of BCP. The procedure:
For example, at least 300 mg of CBD can be dissolved in 1 mL of BCP. The enhanced stability of the CBD provides a composition with an acceptable shelf life and which can provide consistency in dosing and enhanced safety.

Another data set deals with CB2 receptor (Homo sapiens, UniProt P34972). To be noted: Proc Natl Acad Sci USA 2008; 105(26):9099-104; cited from earlier work.

Structures are written as SMILES.

Chain of CB2 receptor (P34972 whole entry): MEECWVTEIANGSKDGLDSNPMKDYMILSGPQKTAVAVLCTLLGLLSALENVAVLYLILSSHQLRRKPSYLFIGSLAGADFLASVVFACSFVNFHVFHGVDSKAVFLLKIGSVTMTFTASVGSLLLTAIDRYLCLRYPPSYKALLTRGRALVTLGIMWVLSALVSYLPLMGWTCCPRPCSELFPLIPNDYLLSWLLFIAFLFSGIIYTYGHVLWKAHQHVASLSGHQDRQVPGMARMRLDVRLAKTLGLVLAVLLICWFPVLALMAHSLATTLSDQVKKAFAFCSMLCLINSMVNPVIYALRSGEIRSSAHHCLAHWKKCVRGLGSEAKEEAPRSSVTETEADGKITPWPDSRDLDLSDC

For `C=C(C)[C@@H]1CCC(C)=C[C@H]1c1c(O)cc(CCCCC)cc1O` [CBD, cannabidiol], in the data set “Solubility of CBD in BCP”, the “amount of CBD that can be dissolved in BCP” value is recorded as “at least 300 mg”. `C=C1CC/C=C(\C)CC[C@@H]2[C@@H]1CC2(C)C` (relative stereo) [β-caryophyllene, trans-(1R,9S)-8-Methylene-4,11,11-trimethylbicyclo[7.2.0]undec-4-ene]: on CB2 receptor, the “binding to the CB2 receptor” value is recorded as “selectively binds to the CB2 receptor” and the “functional activity at the CB2 receptor” value was “functional CB2 agonist”.

Source of the values: patent publication US20240139216A1, “STABLE ORAL CANNABIDIOL COMPOSITIONS” (CARDIOL THERAPEUTICS INC., priority 2020, published 2024).
